Source: patent US12052991B2, “Substituted pyridinyloxybenzenes and salts thereof and use thereof as herbicidal agents” (Bayer Aktiengesellschaft, priority 2018, dated 2024)

How the values were obtained:
Type in all cases: in vivo
Stellaria media (STEME) [1] = assay: Herbicidal post-emergence action (Table B8); conditions: visual rating about 3 weeks after treatment, 100% = plants have died, 0% = like control plants
Outline: (§1)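 Weeds grown from seed in sandy loam in the greenhouse were sprayed at the one-leaf stage, 2 to 3 weeks after sowing, with WP or EC formulations in water plus 0.5% additive at 600 L/ha. Rates corresponded to 1280 or 320 g/ha; damage was rated visually versus untreated controls after about 3 weeks.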

Veronica persica (VERPE) [2] = assay: Herbicidal pre-emergence action, test C (Table C12); conditions: visual scoring vs untreated controls
Outline: (§2)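 Sandy loam, doubly sown pots; surface spray pre-emergence; 1280 or 320 g/ha; 0.5% additive; 600 L/ha. Greenhouse, ~3 weeks. Visual % vs untreated.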

[3] = system: Alopecurus myosuroides (ALOMY); assay: Herbicidal pre-emergence action, test C (Table C9); conditions: visual scoring after about 3 weeks, 100% = plants have died, 0% = like control plants
Text: (§3) Seeds of mono- and dicotyledonous weed plants were placed in plastic pots in sandy loam soil (doubly sown with one species each of mono- or dicotyledonous weed plants per pot) and covered with soil. The compounds of the invention, formulated in the form of wettable powders (WP) or as emulsion concentrates (EC), were then applied onto the surface of the covering soil as aqueous suspension or emulsion with addition of 0.5% additive at a water application rate of 600 liters per hectare (converted). After the treatment, the pots were placed in a greenhouse and kept under good growth conditions for the test plants. After about 3 weeks, the effect of the preparations was scored visually in comparison with untreated controls as percentages. For example, 100% activity=the plants have died, 0% activity=like control plants. Tables C1 to C12 below show the effects of selected compounds of the general formula (I) according to Table 1 on various harmful plants and an application rate corresponding to 1280 or 320 g/ha, which were obtained by the experimental procedure mentioned above.

Bassia scoparia (KCHSC) [4] = assay: Herbicidal post-emergence action (Table B11); conditions: visual rating about 3 weeks after treatment, 100% = plants have died, 0% = like control plants
Outline: as §1

[5] = system: Digitaria sanguinalis (DIGSA); assay: Herbicidal pre-emergence action, test C (Table C10); conditions: visual scoring after about 3 weeks, 100% = plants have died, 0% = like control plants
Outline: as §2

[6] = system: Amaranthus retroflexus (AMARE); assay: Herbicidal pre-emergence action, test C (Table C6); conditions: visual scoring after about 3 weeks, 100% = plants have died, 0% = like control plants
Outline: as §2

[7] = system: Digitaria sanguinalis (DIGSA); assay: Herbicidal post-emergence action (Table B10); conditions: visual rating about 3 weeks after treatment, 100% = plants have died, 0% = like control plants
Outline: as §1

Bassia scoparia (KCHSC) [8] = assay: Herbicidal pre-emergence action, test C (Table C11); conditions: visual scoring vs untreated controls
Text: as §3

Stellaria media (STEME) [9] = assay: Herbicidal pre-emergence action, test C (Table C8); conditions: visual scoring after about 3 weeks, 100% = plants have died, 0% = like control plants
Outline: as §2

[10] = system: Alopecurus myosuroides (ALOMY); assay: Herbicidal post-emergence action (Table B9); conditions: rated visually after about 3 weeks, 100% = plants have died, 0% = like control plants
Outline: as §1

[11] = system: harmful plants ABUTH, AMARE, ECHCG, LOLRI, MATIN, POAAN, SETVI, STEME, ALOMY, DIGSA, KCHSC and VERPE; assay: Herbicidal pre-emergence action (test C), summary of Tables C1-C12; conditions: application rate of 1280 or 320 g of active ingredient per hectare; summary in words
Outline: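 Pre-emergence pot test in sandy loam: WP or EC formulations were sprayed onto the covering soil with 0.5% additive at 600 L/ha water, at 1280 or 320 g/ha. Plants were kept in the greenhouse, and activity was rated visually about 3 weeks later as % versus untreated controls (100% = dead).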

Veronica persica (VERPE) [12] = assay: Herbicidal post-emergence action (Table B12); conditions: visual rating about 3 weeks after treatment, 100% = plants have died, 0% = like control plants
Outline: as §1

[13] = system: harmful plants ABUTH, AMARE, ECHCG, LOLRI, MATIN, POAAN, SETVI, STEME, ALOMY, DIGSA, KCHSC and VERPE; assay: Herbicidal post-emergence action, summary of Tables B1-B12; conditions: application rate of 1280 or 320 g of active ingredient per hectare; summary in words
Outline: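 Greenhouse weeds in sandy loam treated post-emergence at the one-leaf stage, 2–3 weeks after sowing, with WP or EC formulations sprayed with 0.5% additive at 600 L/ha water, 1280 or 320 g/ha. Damage rated visually after about 3 weeks versus untreated controls (0% = like control, 100% = dead).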

Setaria viridis (SETVI) [14] = assay: Herbicidal post-emergence action (Table B4); conditions: rated visually after about 3 weeks, 100% = plants have died, 0% = like control plants
Experimental: Seeds of mono- and dicotyledonous weed plants were placed in plastic pots in sandy loam soil (doubly sown with in each case one species of mono- or dicotyledonous weed plants per pot), covered with soil and cultivated in a greenhouse under controlled growth conditions. 2 to 3 weeks after sowing, the test plants were treated at the one-leaf stage. The compounds of the invention, formulated in the form of wettable powders (WP) or as emulsion concentrates (EC), were applied onto the green parts of the plants as aqueous suspension or emulsion with addition of 0.5% additive at a water application rate of 600 liters per hectare (converted). After the test plants had been kept in the greenhouse under optimum growth conditions for about 3 weeks, the activity of the preparations was rated visually in comparison to untreated controls. For example, 100% activity=the plants have died, 0% activity=like control plants. Tables B1 to B12 below show the effects of selected compounds of the general formula (I) according to Table 1 on various harmful plants and an application rate corresponding to 1280 or 320 g/ha, which were obtained by the experimental procedure mentioned above.

[15] = system: Amaranthus retroflexus (AMARE); assay: Herbicidal post-emergence action (Table B6); conditions: visual rating about 3 weeks after treatment, 100% = plants have died, 0% = like control plants
Outline: as §1

[16] = system: Echinochloa crus-galli (ECHCG); assay: Herbicidal pre-emergence action, test C (Table C1); conditions: visual scoring after about 3 weeks, 100% = plants have died, 0% = like control plants
Text: as §3

[17] = system: Abutilon theophrasti (ABUTH); assay: Herbicidal pre-emergence action, test C (Table C5); conditions: visual scoring after about 3 weeks, 100% = plants have died, 0% = like control plants
Outline: as §2

[18] = system: Abutilon theophrasti (ABUTH); assay: Herbicidal post-emergence action (Table B5); conditions: rated visually after about 3 weeks, 100% = plants have died, 0% = like control plants
Outline: as §1

Lolium rigidum (LOLRI) = assay: Herbicidal pre-emergence action, test C (Table C2); conditions: dosage 1280 g/ha; visual scoring after about 3 weeks; 100% = plants have died, 0% = like control plants
Text: as §3

Setaria viridis (SETVI) [19] = assay: Herbicidal pre-emergence action, test C (Table C4); conditions: visual scoring after about 3 weeks, 100% = plants have died, 0% = like control plants
Outline: as §2

[20] = system: Echinochloa crus-galli (ECHCG); assay: Herbicidal post-emergence action (Table B1); conditions: 1280 g/ha; rated visually after about 3 weeks; 100% = plants have died, 0% = like control plants
Outline: as §1

Poa annua (POAAN) = assay: Herbicidal post-emergence action (Table B3); conditions: rated visually after about 3 weeks, 100% = plants have died, 0% = like control plants
Outline: as §1

N#Cc1cccc(Oc2ccc(Cl)cn2)c1-c1cc(C(F)F)no1 [Example 1-55]
very good herbicidal activity: herbicidal activity against the harmful plants of Tables C1-C12 in pre-emergence treatment [11] | herbicidal activity against the harmful plants of Tables B1-B12 in post-emergence treatment [13]
100%: Post-emergence action against Stellaria media (STEME) (Stellaria media (STEME) [1]; dosage 320 g/ha) | Post-emergence action against Stellaria media (STEME) (Stellaria media (STEME) [1]; dosage 1280 g/ha) | Pre-emergence action against Veronica persica (VERPE) (Veronica persica (VERPE) [2]; dosage 320 g/ha) | Pre-emergence action against Veronica persica (VERPE) (Veronica persica (VERPE) [2]; dosage 1280 g/ha) | Pre-emergence action against Alopecurus myosuroides (ALOMY) ([3]; dosage 320 g/ha) | Pre-emergence action against Alopecurus myosuroides (ALOMY) ([3]; dosage 1280 g/ha) | Post-emergence action against Bassia scoparia (KCHSC) (Bassia scoparia (KCHSC) [4]; dosage 320 g/ha) | Post-emergence action against Bassia scoparia (KCHSC) (Bassia scoparia (KCHSC) [4]; dosage 1280 g/ha) | Pre-emergence action against Digitaria sanguinalis (DIGSA) ([5]; dosage 320 g/ha) | Pre-emergence action against Digitaria sanguinalis (DIGSA) ([5]; dosage 1280 g/ha) | Pre-emergence action against Amaranthus retroflexus (AMARE) ([6]; dosage 320 g/ha) | Pre-emergence action against Amaranthus retroflexus (AMARE) ([6]; dosage 1280 g/ha) | Post-emergence action against Digitaria sanguinalis (DIGSA) ([7]; dosage 320 g/ha) | Post-emergence action against Digitaria sanguinalis (DIGSA) ([7]; dosage 1280 g/ha) | Pre-emergence action against Bassia scoparia (KCHSC) (Bassia scoparia (KCHSC) [8]; dosage 320 g/ha) | Pre-emergence action against Bassia scoparia (KCHSC) (Bassia scoparia (KCHSC) [8]; dosage 1280 g/ha) | Pre-emergence action against Stellaria media (STEME) (Stellaria media (STEME) [9]; dosage 320 g/ha) | Pre-emergence action against Stellaria media (STEME) (Stellaria media (STEME) [9]; dosage 1280 g/ha) | Post-emergence action against Alopecurus myosuroides (ALOMY) ([10]; 320 g/ha) | Post-emergence action against Alopecurus myosuroides (ALOMY) ([10]; 1280 g/ha) | Post-emergence action against Veronica persica (VERPE) (Veronica persica (VERPE) [12]; dosage 320 g/ha) | Post-emergence action against Veronica persica (VERPE) (Veronica persica (VERPE) [12]; dosage 1280 g/ha) | Post-emergence action against Setaria viridis (SETVI) (Setaria viridis (SETVI) [14]; 320 g/ha) | Post-emergence action against Setaria viridis (SETVI) (Setaria viridis (SETVI) [14]; 1280 g/ha) | Post-emergence action against Amaranthus retroflexus (AMARE) ([15]; dosage 320 g/ha) | Post-emergence action against Amaranthus retroflexus (AMARE) ([15]; dosage 1280 g/ha) | Pre-emergence action against Echinochloa crus-galli (ECHCG) ([16]; dosage 320 g/ha) | Pre-emergence action against Echinochloa crus-galli (ECHCG) ([16]; dosage 1280 g/ha) | Pre-emergence action against Abutilon theophrasti (ABUTH) ([17]; dosage 320 g/ha) | Pre-emergence action against Abutilon theophrasti (ABUTH) ([17]; dosage 1280 g/ha) | Post-emergence action against Abutilon theophrasti (ABUTH) ([18]; 320 g/ha) | Post-emergence action against Abutilon theophrasti (ABUTH) ([18]; 1280 g/ha) | Pre-emergence action against Lolium rigidum (LOLRI) (Lolium rigidum (LOLRI)) | Pre-emergence action against Setaria viridis (SETVI) (Setaria viridis (SETVI) [19]; dosage 320 g/ha) | Pre-emergence action against Setaria viridis (SETVI) (Setaria viridis (SETVI) [19]; dosage 1280 g/ha) | Post-emergence action against Echinochloa crus-galli (ECHCG) [20] | Post-emergence action against Poa annua (POAAN) (Poa annua (POAAN); 320 g/ha) | Post-emergence action against Poa annua (POAAN) (Poa annua (POAAN); 1280 g/ha)
